Data set [1] in a line: Plasma protein binding (human). It is filed as in vitro ADME. The settings on record: pH 7.4, read-out: PPB human (converted). How it is done: 0.3% DMSO - ΔRatio of 1 µM control compound)x100
In vitro Plasma protein binding and Brain homogenate binding: Determination of fraction unbound (f u) in plasma was conducted in vitro via equilibrium dialysis using HTDialysis (HTD) membrane plates. The top half of the plate was filled with 100 uL of Dubelco’s Phosphate Buffered Saline, pH 7.4 (DPBS). Compounds were diluted into plasma from each species (5 µM final concentration), which was aliquoted in triplicate to the ‘bottom half’ of the prepared HTD plate wells. The HTD plate was sealed and incubated for 6 hours at 37 °C. Following incubation, each well (both top and bottom halves) were transferred (20 µL) to the corresponding wells of a 96-shallow-well (V-bottom) plate. The daughter plates were then matrix-matched (DPBS side wells received equal volume of plasma, and plasma side wells received equal volume of DPBS), and extraction solution (120 µL; acetonitrile containing 50 nM carbamazepine as IS) was added to all wells of both daughter plates to precipitate protein and extract test article. The plates were then sealed and centrifuged (3500 rcf) for 10 minutes at ambient temperature. Supernatant (60 µL) from each well of the daughter plates was then transferred to the corresponding wells of new daughter plates (96-shallow-well, V bottom) containing water (Milli-Q, 60 µL/well), and the plates were sealed in preparation for LC-MS/MS analysis (see LC-MS/MS analysis method below).
The unbound fraction (f u) was calculated following the equation below, and mean values for each species were calculated from 3 replicates. A similar approach was used to determine the degree of brain homogenate binding, which employed the same methodology and procedure with the following modifications: 1) a final compound concentration of 1 μM was used, 2) naïve rat brains were homogenized in DPBS (1:3 composition of brain: DPBS, w/w) using a Mini-Bead Beater™ machine in order to obtain brain homogenate, which was then treated in the same manner as the plasma samples in the previously described plasma protein binding assay. Fraction unbound for both plasma and brain samples was determined using Equation 4.

Data set [2] is described as follows: Mouse PBL (plasma:brain level) study. It is filed as in vivo.
Protocol: fortified tube and immediately placed on wet ice. The blood sample was then centrifuged (1700 rcf, 5 minutes, 4 °C) to obtain plasma sample. At the same post-administration time point, a whole brain sample was obtained by rapid dissection, rinsed with PBS, and immediately frozen in individual tissue collection box (dry ice). All brain and plasma samples were stored at -80 °C until
Sample Analysis: Concentrations in plasma and brain homogenates were quantified by liquid chromatography tandem mass spectrometry (LC-MS/MS). Whole brains were homogenized in 3 mL of 70:30 IPA:water in a mini bead beater for 3 min, and centrifuged at 3,500 g for 5 min. 5 uL of the supernatant was diluted in 15 uL of blank plasma for quantification of the analytes. Plasma samples were centrifuged at 3,500 g for 5 min. A standard curve was generated by diluting the analytes DMSO stocks with blank plasma to obtain a final concentration of 10,000 ng/mL followed by a serial dilution down to 0.5 ng/mL. Quality controls were generated by a serial dilution of the 5,000 ng/mL standard curve solution in blank plasma to obtain 3 concentrations of 500, 50, and 5 ng/mL. 20 uL of brain diluted in plasma, plasma, blank plasma, standard curve and QC samples were loaded in a V-bottom 96-well plate. 120 uL of acetonitrile containing 0.05 uM carbamazepine (internal standard) was added to each well and the plate was centrifuged at 3,500 g for 5 min. 60 uL of the supernatant of each well (protein free) was transferred to a new 96-well plate containing 60 uL of water. The plates were sealed for analysis by LC-MS/MS.
Plasma and brain tissue samples originating from in vivo studies were analyzed by electrospray ionization using an AB Sciex Q-TRAP 5500 (Foster City, CA) that was coupled to a Shimadzu LC-20AD pump (Columbia, MD) and a Leap Technologies CTC PAL auto-sampler (Carrboro, NC). Analytes were separated by gradient elution using a C18 column (3 x 50 mm, 3 mm; Fortis Technologies Ltd, Cheshire, UK) that was thermostated at 40 °C. HPLC mobile phase A was 0.1% formic acid in water (pH unadjusted); mobile phase B was 0.1% formic acid in acetonitrile (pH
min, with an isocratic hold for 0.5 min, before transitioning to 10% B over 0.05 min. The column was re-equilibrated (1 min) before the next sample injection. The total run time was 2.55 min, and the HPLC flow rate was 0.5 mL/min. The source temperature was set at 500 °C, and mass spectral analyses were performed using a Turbo-Ion spray source in positive ionization mode (5.0-kV spray voltage) and using multiple-reaction monitoring of transitions specific for the analytes. All data were analyzed using AB Sciex Analyst 1.5.1 software.
Brain plasma concentration ratio (Kp) was calculated by dividing brain concentration by plasma concentration for each animal. Unbound brain to unbound plasma concentration ratio (Kp,uu) is calculated using the following formula: Kp,uu = (Brain ng/g x brain fu)/(plasma ng/mL x plasma
In data set [3] the test system is other K2P channels except TREK-2. Briefly: K2P channel selectivity (panel). Format: cell-based. From the text:
Herein we describe our continuing work on the K2P family of potassium ion channels with the chemical optimization of a selective and CNS penetrant series of TREK inhibitors, culminating in the discovery of ONO-TR-772 (VU6018042).

Another data set deals with Kv1.5 (Homo sapiens, UniProt P22460). Description: Cardiac ion channel MPC selectivity panel. Format: cell-based.
Sequence of Kv1.5 (P22460 whole entry): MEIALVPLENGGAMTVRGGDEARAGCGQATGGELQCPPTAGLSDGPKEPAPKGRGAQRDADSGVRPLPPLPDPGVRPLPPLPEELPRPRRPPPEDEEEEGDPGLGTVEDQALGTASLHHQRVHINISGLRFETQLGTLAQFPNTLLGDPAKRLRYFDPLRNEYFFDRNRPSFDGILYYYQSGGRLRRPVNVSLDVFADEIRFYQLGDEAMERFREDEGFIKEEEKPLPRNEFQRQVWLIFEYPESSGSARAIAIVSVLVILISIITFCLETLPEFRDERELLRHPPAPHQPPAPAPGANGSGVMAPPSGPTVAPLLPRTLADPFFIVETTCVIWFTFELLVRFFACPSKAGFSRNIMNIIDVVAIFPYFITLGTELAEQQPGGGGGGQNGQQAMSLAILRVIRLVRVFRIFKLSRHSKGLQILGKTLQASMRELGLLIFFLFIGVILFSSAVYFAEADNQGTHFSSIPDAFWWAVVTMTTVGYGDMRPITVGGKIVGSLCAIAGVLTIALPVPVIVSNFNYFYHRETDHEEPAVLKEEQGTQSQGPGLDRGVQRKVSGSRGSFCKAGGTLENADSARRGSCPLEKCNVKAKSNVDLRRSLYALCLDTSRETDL
The target in a further data set is Kv4.3 (Homo sapiens, UniProt Q9UK17). Description: Cardiac ion channel MPC selectivity panel. Format: cell-based.
Sequence of Kv4.3 (Q9UK17 whole entry): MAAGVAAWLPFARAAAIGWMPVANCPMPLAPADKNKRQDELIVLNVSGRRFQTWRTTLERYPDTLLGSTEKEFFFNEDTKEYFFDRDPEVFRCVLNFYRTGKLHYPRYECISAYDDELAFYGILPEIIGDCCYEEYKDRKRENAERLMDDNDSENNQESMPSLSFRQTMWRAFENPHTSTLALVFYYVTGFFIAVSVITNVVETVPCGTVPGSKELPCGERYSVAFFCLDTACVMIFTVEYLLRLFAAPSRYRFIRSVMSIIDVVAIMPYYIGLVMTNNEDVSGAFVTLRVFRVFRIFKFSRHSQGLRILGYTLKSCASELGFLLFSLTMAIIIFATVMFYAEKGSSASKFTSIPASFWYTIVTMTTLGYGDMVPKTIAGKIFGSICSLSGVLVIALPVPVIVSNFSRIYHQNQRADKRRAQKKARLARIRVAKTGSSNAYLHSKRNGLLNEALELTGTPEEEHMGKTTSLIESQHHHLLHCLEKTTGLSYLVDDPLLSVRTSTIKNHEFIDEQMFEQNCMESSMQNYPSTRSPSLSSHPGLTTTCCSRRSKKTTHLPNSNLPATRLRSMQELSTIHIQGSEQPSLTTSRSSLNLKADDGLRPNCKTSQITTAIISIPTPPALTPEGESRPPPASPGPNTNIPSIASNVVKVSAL
The next data set deals with KCNQ1 (Homo sapiens, UniProt P51787). Briefly: Cardiac ion channel MPC selectivity panel. Format: cell-based.
In another data set the target is hERG (Homo sapiens, UniProt Q12809). Briefly: Cardiac ion channel MPC selectivity panel. Format: cell-based.
Sequence of hERG (Q12809 whole entry): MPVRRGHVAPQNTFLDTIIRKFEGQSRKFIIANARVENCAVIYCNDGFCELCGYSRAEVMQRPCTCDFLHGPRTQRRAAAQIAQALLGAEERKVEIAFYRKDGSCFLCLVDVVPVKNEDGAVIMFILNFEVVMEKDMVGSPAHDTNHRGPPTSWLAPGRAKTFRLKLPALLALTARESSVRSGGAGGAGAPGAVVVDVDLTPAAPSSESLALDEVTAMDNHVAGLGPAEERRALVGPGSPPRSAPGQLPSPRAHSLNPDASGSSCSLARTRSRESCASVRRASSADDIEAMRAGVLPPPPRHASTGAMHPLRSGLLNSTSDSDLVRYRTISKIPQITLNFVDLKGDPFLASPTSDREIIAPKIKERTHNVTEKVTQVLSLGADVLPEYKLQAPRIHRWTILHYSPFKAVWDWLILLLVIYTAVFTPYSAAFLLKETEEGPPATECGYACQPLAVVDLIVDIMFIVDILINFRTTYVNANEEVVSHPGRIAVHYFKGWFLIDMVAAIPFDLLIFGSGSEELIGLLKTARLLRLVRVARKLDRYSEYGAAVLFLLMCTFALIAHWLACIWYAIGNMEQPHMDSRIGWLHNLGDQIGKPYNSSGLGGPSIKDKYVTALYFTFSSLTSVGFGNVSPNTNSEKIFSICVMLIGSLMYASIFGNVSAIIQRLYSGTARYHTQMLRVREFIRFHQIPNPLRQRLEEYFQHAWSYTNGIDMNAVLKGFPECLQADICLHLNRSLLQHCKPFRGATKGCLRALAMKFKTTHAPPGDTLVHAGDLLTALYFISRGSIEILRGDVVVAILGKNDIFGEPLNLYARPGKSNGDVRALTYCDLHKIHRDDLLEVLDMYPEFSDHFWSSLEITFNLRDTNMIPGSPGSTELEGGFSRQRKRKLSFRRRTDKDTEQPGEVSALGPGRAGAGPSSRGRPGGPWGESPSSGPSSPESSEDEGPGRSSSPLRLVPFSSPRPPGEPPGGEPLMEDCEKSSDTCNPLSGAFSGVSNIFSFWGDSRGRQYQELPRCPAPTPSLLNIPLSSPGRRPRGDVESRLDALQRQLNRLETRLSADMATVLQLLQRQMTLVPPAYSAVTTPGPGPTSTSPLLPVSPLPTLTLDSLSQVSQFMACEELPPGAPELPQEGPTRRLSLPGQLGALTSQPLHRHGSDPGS
The target of a further data set is Kir2.2 (Homo sapiens, UniProt Q14500). Briefly: Cardiac ion channel MPC selectivity panel. Format: cell-based.
The target in a further data set is Adrenergic α1D (Homo sapiens, UniProt P25100). Briefly: Eurofins lead profiling screen (radioligand binding).
Sequence of Adrenergic α1D (P25100 whole entry): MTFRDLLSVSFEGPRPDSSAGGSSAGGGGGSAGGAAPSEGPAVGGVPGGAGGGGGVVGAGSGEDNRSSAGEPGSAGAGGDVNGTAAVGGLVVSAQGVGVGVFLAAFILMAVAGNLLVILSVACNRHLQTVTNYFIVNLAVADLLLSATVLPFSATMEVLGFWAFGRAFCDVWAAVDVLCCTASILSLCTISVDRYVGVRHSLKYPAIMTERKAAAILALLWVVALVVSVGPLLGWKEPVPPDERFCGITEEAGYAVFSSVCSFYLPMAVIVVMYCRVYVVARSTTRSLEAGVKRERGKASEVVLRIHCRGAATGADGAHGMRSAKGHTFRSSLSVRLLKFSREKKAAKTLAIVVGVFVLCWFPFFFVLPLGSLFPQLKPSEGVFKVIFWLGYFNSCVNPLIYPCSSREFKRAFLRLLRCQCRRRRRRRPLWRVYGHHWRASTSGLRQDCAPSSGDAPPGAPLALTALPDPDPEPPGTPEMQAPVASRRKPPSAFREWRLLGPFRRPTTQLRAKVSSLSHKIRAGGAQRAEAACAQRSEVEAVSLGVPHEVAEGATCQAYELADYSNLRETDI
The target in the next data set is Adrenergic β2 (Homo sapiens, UniProt P07550). The data set is described as above.
Sequence of Adrenergic β2 (P07550 whole entry): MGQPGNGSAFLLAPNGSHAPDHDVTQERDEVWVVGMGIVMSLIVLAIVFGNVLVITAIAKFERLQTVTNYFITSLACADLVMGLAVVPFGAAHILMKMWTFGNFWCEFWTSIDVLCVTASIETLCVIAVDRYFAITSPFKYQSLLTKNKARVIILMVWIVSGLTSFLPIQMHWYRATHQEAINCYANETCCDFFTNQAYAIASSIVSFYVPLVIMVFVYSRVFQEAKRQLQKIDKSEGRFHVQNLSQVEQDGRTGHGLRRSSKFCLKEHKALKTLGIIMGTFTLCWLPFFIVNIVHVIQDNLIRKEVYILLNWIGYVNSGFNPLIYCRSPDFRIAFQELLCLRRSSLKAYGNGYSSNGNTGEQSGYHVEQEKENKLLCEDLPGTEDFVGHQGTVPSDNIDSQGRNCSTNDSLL
For another data set, the target named is Bradykinin B2 (Homo sapiens, UniProt P30411). Described as above.
Sequence of Bradykinin B2 (P30411 whole entry): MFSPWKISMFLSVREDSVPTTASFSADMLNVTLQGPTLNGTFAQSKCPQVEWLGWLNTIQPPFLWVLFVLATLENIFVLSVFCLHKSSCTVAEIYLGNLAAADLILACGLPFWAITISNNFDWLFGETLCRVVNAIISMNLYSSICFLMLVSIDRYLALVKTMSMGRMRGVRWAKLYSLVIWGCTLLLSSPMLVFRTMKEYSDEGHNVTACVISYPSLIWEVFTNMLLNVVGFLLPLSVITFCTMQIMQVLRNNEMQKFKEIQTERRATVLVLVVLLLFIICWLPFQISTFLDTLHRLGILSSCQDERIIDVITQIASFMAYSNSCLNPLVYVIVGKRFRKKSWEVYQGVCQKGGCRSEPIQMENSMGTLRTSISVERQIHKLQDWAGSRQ
The target of another data set is Dopamine D2S (Homo sapiens, UniProt P14416). The description is as above.
The target of another data set is Endothelin ETA (Homo sapiens, UniProt P25101). The description is as above.
Sequence of Endothelin ETA (P25101 21-427): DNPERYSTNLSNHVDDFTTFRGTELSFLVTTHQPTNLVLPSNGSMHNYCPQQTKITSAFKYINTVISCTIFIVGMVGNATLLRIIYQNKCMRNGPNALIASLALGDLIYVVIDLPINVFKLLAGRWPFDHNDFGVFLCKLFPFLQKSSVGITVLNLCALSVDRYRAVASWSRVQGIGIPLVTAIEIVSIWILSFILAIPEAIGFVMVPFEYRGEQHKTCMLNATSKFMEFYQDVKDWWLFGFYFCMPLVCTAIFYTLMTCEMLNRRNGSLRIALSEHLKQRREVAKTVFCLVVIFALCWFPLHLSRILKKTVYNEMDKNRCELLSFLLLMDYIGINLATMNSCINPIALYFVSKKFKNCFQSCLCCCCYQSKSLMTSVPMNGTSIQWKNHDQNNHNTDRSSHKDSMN
In a further data set the target is Estrogen ERα (Homo sapiens, UniProt P03372). The data set is described as above.
Another data set addresses Glutamate, NMDA, Glycine (Rattus norvegicus, UniProt P35439). The description is as above.
Data set [4] deals with Glutamate, NMDA, Phencyclidine. The description is as above. On the set-up: species or system Rat.
In the next data set the target is Histamine H1 (Homo sapiens, UniProt P35367). The data set is described as above.
Another data set addresses Interleukin IL-1 R1 (Homo sapiens, UniProt P14778). The description is as above.
A further data set deals with Muscarinic M1 (Homo sapiens, UniProt P11229). Described as above.
A further data set has as its target Neuropeptide Y Y1 (Homo sapiens, UniProt P25929). The data set is described as above.
Data set [5] has as its target Nicotinic Acetylcholine α1, Bungarotoxin (Homo sapiens, UniProt P02708+P07510+Q07001). Description: biochemical. The settings on record: read-out: % Inhibition at 10 µM. Format: binding.
The next data set deals with Opiate μ (OP3, MOP) (Homo sapiens, UniProt P35372). Briefly: Eurofins lead profiling screen (radioligand binding).
For a further data set, the target named is Tachykinin NK1 (Homo sapiens, UniProt P25103). The description is as above.
Sequence of Tachykinin NK1 (P25103 whole entry): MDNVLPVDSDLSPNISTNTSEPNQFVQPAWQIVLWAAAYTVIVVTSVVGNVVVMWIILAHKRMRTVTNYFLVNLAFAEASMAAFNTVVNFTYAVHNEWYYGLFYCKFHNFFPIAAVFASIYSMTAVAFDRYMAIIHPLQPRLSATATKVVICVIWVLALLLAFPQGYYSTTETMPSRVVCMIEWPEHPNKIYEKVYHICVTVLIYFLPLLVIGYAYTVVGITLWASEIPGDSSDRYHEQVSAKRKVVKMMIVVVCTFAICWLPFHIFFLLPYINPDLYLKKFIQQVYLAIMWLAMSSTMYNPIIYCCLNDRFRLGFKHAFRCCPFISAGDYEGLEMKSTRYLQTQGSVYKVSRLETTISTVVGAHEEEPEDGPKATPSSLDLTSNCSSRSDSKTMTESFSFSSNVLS

The Tmax is the time from dosing to the highest level. The term inhibition denotes the relative decrease from the control value, in per cent. What is called % Inhibition is the relative decrease from the control value, in per cent.

Bounds are passed on as bounds.

Sequence of Neuropeptide Y Y1 (P25929 whole entry): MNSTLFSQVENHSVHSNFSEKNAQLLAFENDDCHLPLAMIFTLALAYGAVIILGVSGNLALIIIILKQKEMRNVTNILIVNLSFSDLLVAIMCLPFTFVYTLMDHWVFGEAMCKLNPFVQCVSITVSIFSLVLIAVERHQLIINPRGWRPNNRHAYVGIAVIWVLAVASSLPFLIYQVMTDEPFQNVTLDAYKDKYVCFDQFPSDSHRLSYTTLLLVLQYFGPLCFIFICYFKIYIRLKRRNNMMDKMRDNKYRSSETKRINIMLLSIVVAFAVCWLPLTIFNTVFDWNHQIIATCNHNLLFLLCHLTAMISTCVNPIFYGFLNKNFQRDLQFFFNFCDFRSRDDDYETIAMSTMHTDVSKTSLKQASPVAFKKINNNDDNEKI

For the compound `Cc1cc(C#Cc2ccc(F)cc2)cnc1NC(=O)c1cc(NC(=O)OC(C)(C)C)ccc1Cl` [Compound 14c], in data set [1], the fraction unbound at 6 h, 5 µM was 0.006. Also, the time of peak concentration (Tmax) in data set [2] (CD-1, brain, mouse, 10 mg/kg IP) worked out at 4 h. Besides, in [2] (CD-1 male mouse, 10 mg/kg PO), the “Cmax total brain concentration” value is 252 nM and the “brain AUC” value came to 2269 nM·h. Further, the Tmax in data set [2] (brain, CD-1 male mouse, 10 mg/kg PO) is 4 h. Moreover, in [2] (mouse, 10 mg/kg IP), the “Cmax total brain exposure” value worked out at 888 nM and the “brain AUC” value was 12,261 h*nM. For the same compound, the Cmax unbound brain in data set [2] (mouse, 10 mg/kg IP, based on mouse brain homogenate binding) was determined as 5.3 nM. Moreover, the “activity versus other K2P channels except TREK-2” value in [3] was greater than 10 µM. In addition, the “% at 10 μM, Kv1.5” value on Kv1.5 is reported as less than 50%. Moreover, at Kv4.3, the “% at 10 μM, Kv4.3” value is on record as less than 50%. On KCNQ1, the “% at 10 μM, KCNQ1” value is listed as less than 50%. For the same compound, the “% at 10 μM, hERG” value on hERG is given as less than 50%. The “% at 10 μM, Kir2.2” value at Kir2.2 was found to be 52%.

Regarding `O=C(NCc1ccc(OC(F)(F)F)cc1F)c1ccc2ncnn2c1` [ONO-2920632], the inhibition at 10 µM at Adrenergic α1D is 26%; on Adrenergic β2 it was 4%; on Bradykinin B2 it was -10%; at Dopamine D2S, -1%; on Endothelin ETA, -11%; on Estrogen ERα, 8%. The inhibition at 10 µM is -6% on Glutamate, NMDA, Glycine; 12% at Histamine H1; -1% at Interleukin IL-1 R1; 4% at Muscarinic M1; 15% at Neuropeptide Y Y1; -4% in [5]. Further, the inhibition at 10 µM was found to be 15% on Opiate μ (OP3, MOP) and 13% on Tachykinin NK1. Besides, the “% Inhibition at 10 µM” value in data set [4] is -15%.
